Test results published in the Kinase Knowledgebase extract (Sharma et al. 2016).
pIC50: −log10 of the molar value.

How the values were obtained:
PIK3CA (human) = PIK3CA (human) (UniProt P42336); experiment: Enzyme Assay
PIK3CG (human) = PIK3CG (human) (UniProt P48736); experiment: Inhibition of PIK3CG Kinase Activity
Chain of PIK3CG (human) (P48736 whole entry, looked up): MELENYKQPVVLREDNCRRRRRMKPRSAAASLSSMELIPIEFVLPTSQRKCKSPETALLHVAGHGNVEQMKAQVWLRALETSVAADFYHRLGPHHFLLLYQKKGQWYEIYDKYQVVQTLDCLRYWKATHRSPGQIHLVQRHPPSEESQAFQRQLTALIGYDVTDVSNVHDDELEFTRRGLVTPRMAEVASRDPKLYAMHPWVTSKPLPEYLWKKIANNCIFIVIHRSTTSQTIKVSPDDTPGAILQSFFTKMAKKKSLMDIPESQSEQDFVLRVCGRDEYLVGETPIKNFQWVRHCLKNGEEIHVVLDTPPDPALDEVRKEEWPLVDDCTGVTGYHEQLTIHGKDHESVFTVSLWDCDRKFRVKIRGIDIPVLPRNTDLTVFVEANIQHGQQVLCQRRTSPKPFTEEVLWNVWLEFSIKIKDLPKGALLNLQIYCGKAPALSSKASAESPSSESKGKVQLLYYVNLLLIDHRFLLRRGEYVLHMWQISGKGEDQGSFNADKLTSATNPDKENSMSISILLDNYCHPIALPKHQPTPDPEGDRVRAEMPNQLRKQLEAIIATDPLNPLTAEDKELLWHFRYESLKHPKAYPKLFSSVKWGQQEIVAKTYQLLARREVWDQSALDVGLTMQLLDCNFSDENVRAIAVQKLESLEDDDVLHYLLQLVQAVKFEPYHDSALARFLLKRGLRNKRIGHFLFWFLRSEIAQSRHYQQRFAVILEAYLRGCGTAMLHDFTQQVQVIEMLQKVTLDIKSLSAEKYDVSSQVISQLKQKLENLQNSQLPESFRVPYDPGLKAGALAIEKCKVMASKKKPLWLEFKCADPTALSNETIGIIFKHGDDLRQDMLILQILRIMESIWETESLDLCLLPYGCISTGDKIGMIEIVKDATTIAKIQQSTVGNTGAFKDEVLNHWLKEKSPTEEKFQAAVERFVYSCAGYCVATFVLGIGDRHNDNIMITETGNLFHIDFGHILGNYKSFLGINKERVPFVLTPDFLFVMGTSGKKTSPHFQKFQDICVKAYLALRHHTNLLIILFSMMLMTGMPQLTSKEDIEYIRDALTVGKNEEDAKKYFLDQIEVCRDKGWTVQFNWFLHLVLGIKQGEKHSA

Chain of PIK3CA (human) (P42336 whole entry, looked up): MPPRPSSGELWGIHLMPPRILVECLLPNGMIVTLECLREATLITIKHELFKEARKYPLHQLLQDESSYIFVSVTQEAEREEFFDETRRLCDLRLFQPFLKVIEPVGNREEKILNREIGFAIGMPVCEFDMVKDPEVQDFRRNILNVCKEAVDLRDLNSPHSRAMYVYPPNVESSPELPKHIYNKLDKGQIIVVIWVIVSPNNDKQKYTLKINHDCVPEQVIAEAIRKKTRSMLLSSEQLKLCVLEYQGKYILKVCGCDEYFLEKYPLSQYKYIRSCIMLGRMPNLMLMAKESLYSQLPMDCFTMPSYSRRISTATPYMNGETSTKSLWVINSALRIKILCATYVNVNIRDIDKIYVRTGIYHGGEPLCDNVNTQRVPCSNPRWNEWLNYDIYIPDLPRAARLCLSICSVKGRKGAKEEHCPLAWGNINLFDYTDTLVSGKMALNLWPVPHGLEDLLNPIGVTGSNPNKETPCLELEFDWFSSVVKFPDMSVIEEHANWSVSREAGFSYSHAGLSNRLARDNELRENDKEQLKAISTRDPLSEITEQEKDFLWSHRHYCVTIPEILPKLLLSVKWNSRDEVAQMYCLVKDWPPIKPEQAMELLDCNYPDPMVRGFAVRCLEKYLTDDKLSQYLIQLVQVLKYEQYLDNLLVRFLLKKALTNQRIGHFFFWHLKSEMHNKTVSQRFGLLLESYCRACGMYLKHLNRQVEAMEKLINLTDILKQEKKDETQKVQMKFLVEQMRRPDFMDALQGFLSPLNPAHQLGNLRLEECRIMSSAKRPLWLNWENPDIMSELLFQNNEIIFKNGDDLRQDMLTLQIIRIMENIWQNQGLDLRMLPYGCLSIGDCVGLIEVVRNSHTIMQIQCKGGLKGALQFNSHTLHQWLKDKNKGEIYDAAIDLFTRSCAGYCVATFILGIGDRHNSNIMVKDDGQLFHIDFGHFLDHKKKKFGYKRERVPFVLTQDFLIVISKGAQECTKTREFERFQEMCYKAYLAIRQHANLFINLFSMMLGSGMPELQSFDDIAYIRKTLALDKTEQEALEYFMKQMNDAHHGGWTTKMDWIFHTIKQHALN

Row | pIC50 (PIK3CA (human)) | pIC50 (PIK3CG (human)) | SMILES
1 | 6.42 | 5.68 | Cn1cc(/C=C2\Oc3cccc(O)c3C2=O)c2c(-c3ccc[nH]3)ccnc21
2 | 6.74 | 6.86 | Cn1cc(/C=C2\Oc3cc(O)cc(O)c3C2=O)c2c(-c3ccc(OC(F)(F)F)cc3)ccnc21
3 | 7.28 | 6.80 | COc1ccc(-c2ccnc3c2c(/C=C2\Oc4cc(O)cc(O)c4C2=O)cn3C)cc1
4 | 6.96 | 6.56 | Cn1cc(/C=C2\Oc3cccc(O)c3C2=O)c2c(-c3ccc(C4=NCCCO4)cc3)ccnc21
5 | 7.42 | 6.97 | CN(C)S(=O)(=O)c1ccc(-c2ccnc3c2c(/C=C2\Oc4cccc(O)c4C2=O)cn3C)cc1
6 | 7.74 | 6.83 | Cn1cc(/C=C2\Oc3cc(O)cc(O)c3C2=O)c2c(-c3cncnc3)ccnc21

The next lines start with the molecule.

Row | SMILES | pIC50 (PIK3CA (human)) | pIC50 (PIK3CG (human))
7 | CN(C)C(=O)CN(C)C(=O)C1CCN(c2ccnc3c2c(C=C2Oc4ccc(NC(=O)Nc5cccnc5)cc4C2=O)cn3C)CC1 | 5.37 | 5.17
8 | Cn1cc(/C=C2\Oc3cccc(O)c3C2=O)c2c(-c3ccc(C(=O)N4CCOCC4)cc3)ccnc21 | 7.31 | 7.27
9 | Cn1cc(/C=C2\Oc3ccc(NC(=O)NC4CC4)cc3C2=O)c2c(N3CC4CCC(C3)O4)ccnc21 | 6.54 | 5.67
10 | Cn1cc(/C=C2\Oc3ccc(NC(=O)Nc4ccc(Cl)nc4)cc3C2=O)c2c(N3CC4CCC(C3)O4)ccnc21 | 6.13 | 5.60
